Test system: HT-22 hippocampal neuronal cells
Assay: Apoptosis assay, Annexin V-FITC and propidium iodide flow cytometry
Format: cell-based, mouse
Details: for radiation-induced apoptosis, cells positive for apoptosis: HT-22, pretreated (LiCl 3 mM 7 days; inhibitor VIII 1 μM or SB415286 25 μM 24 h), 3 Gy, 24 h after irradiation, 3 Gy alone 53%, untreated 8%
Experimental: Apoptosis assays. HT-22 cells were treated with LiCl (3 mM) for 7 days, with GSK3β inhibitor VIII (1 μM) or SB415286 (25 μM) for 24 hours prior to irradiation. Camptothecin (5 μM) was added to the HT-22 cells 6 hours prior to harvest as a positive control for apoptosis. The HT-22 cells with or without the inhibitors were irradiated with 3 Gy and harvested 24 hours post irradiation. Annexin V-FITC (5 ng) and propidium iodide (50 ng) were added to […]. Stained cells were analyzed by flow cytometry. The fraction of cells in each of the four gating windows (Q1-4) was calculated.
Apoptosis was studied in irradiated mouse HT-22 hippocampal neuronal cells pretreated with LiCl, GSK3β inhibitor VIII or SB415286. The fraction of cells in each of the four gating windows (Q1-4) was calculated and tabulated as the mean and SEM of 3 separate experiments. Camptothecin served as positive control for apoptosis and was added to HT-22 cells prior to staining for apoptosis. Camptothecin positive control induced apoptosis in 78.8% of cells. In comparison, 3 Gy irradiation induced apoptosis in 53% of cells, while 8% of untreated control cells stained positive for apoptosis (FIG. 2B). […] Lithium, as a nonspecific neuroprotector, attenuated radiation-induced apoptosis to 21.9% of cells (P=0.01, 3 Gy vs. 3 Gy+LiCl). The radioprotective effect of lithium in HT-22 neuronal cells was also analyzed by morphologic analysis using DAPI staining.

SMILES | apoptosis induced by positive control (HT-22, camptothecin 5 μM added 6 hours prior to harvest) | radiation-induced apoptosis, cells positive for apoptosis
CC[C@@]1(O)C(=O)OCc2c1cc1n(c2=O)Cc2cc3ccccc3nc2-1 [Camptothecin] | 78.8% | –
COc1ccc(CNC(=O)Nc2ncc([N+](=O)[O-])s2)cc1 [GSK3β inhibitor VIII] | – | 33.9%
O=C1NC(=O)C(c2ccccc2[N+](=O)[O-])=C1Nc1ccc(O)c(Cl)c1 [SB415286] | – | 41.4%

— patent US8771754B2, “Use of GSK3 inhibitors in combination with radiation therapies” (priority 2004, dated 2014)
